Laboratory results reported in US10154957B2, “Microneedle device having a peptide therapeutic agent and an amino acid and methods of making and using the same” (3M INNOVATIVE PROPERTIES COMPANY, priority 2011, dated 2018).
Marks after values point to notes of the source that are not given here.

Assay: Percent purity of PTHrP analogue in coating with varying His-HCl concentration, three storage conditions (HPLC)
Assay type: physicochemical
Conditions: peptide 10 mg/mL in PBS
Protocol: The protein or polypeptide content in the formulation coated on the microneedle arrays was determined using an Agilent 1100 HPLC system (Agilent Technologies, Wilmington, Del.) equipped with a binary pump, well-plated thermostated autosampler, thermostated column compartment, and a diode array UV detector. A Zorbax 300SB-C8 column (Agilent Technologies, Wilmington, Del.) having a 5 μm particle size and 2.1×150 mm inner diameter was used for the separations. The column was maintained at 50° C. The mobile phase consisted of two eluents. Eluent A was 0.1% TFA (trifluoroacetic acid) in water and eluent B was 0.1% TFA in acetonitrile (Spectrum Chemical, New Brunswick, N.J.). A linear gradient from 80/20 to 50/50 (A/B) was applied over 30 minutes. The flow rate was 0.4 mL/minute and the UV detection wavelength was set at 214 nm. The total run time was 34 minutes and the sample injection volume was 15 μL.
Five sample formulations were prepared containing 10 mg/mL of [Glu^22,25,Leu^23,28,31,Aib^29,Lys^26,30]hPTHrP(1-34)NH2 and varying concentrations of L-histidine monohydrochloride (His-HCl) in PBS. The concentrations of His-HCl in the sample formulations range from 1 mg/mL to 10 mg/mL. A control formulation was also prepared containing 10 mg/mL of [Glu^22,25,Leu^23,28,31,Aib^29,Lys^26,30]hPTHrP(1-34)NH2 in PBS. […] Microneedle arrays were coated with either the sample or the control formulations. The coating was applied by dropwise addition of 40 μL of the formulation to the portion of the array defined by the octagon shaped pattern of microneedles. The flood coated arrays (both sample and control formulation coated) were dried in an oven at 35° C. for 1.5 hours followed by 30° C. for 15 hours.
After drying, the coated arrays were placed in a storage chamber that was maintained at one of three storage conditions: 40° C./96% RH (storage condition A); 25° C./60% RH (storage condition B); or 5° C./ambient RH. The [Glu^22,25,Leu^23,28,31,Aib^29,Lys^26,30]hPTHrP(1-34)NH2 content of the coated arrays was determined following storage in a chamber for 1 day, 3 days, 7 days, 14 days, 21 days, 28 days, and 2 months. The initial [Glu^22,25,Leu^23,28,31,Aib^29,Lys^26,30]hPTHrP(1-34)NH2 content was also determined using freshly coated arrays (both sample and control formulation coated). The arrays used to determine initial content were stored in a refrigerator at about 4° C. and analyzed within one day of being prepared. At the designated time point, an array was taken from the chamber and washed with PBS (3.5 mL) to remove the coating from the array. An aliquot of the resulting wash solution was analyzed for [Glu^22,25,Leu^23,28,31,Aib^29,Lys^26,30]hPTHrP(1-34)NH2 content using the HPLC method described above. The results were quantified against an external standard of [Glu^22,25,Leu^23,28,31,Aib^29,Lys^26,30]hPTHrP(1-34)NH2. At each time point, the percent purity of [Glu^22,25,Leu^23,28,31,Aib^29,Lys^26,30]hPTHrP(1-34)NH2 in the coating was determined by measuring the peak area for [Glu^22,25,Leu^23,28,31,Aib^29,Lys^26,30]hPTHrP(1-34)NH2 in the selected coating and dividing it by the total peak area measured for all [Glu^22,25,Leu^23,28,31,Aib^29,Lys^26,30]hPTHrP(1-34)NH2 related peaks.

- Percent Purity of [Glu^22,25, Leu^23,28,31, Aib^29, Lys^26,30]hPTHrP(1-34)NH2 (Histidine-HCl 1 mg/mL, Storage Condition B (25° C./60% RH), 2 months): 98.1%
- Percent Purity of [Glu^22,25, Leu^23,28,31, Aib^29, Lys^26,30]hPTHrP(1-34)NH2 (Histidine-HCl 1 mg/mL, Storage Condition B (25° C./60% RH), Day 3): 98.7%
- Percent Purity of [Glu^22,25, Leu^23,28,31, Aib^29, Lys^26,30]hPTHrP(1-34)NH2 (Histidine-HCl 1 mg/mL, Storage Condition B (25° C./60% RH), Day 7): 98.8%
- Percent Purity of [Glu^22,25, Leu^23,28,31, Aib^29, Lys^26,30]hPTHrP(1-34)NH2 (Histidine-HCl 1 mg/mL, Storage Condition B (25° C./60% RH), Day 14): 98.7%
- Percent Purity of [Glu^22,25, Leu^23,28,31, Aib^29, Lys^26,30]hPTHrP(1-34)NH2 (Histidine-HCl 1 mg/mL, Storage Condition B (25° C./60% RH), Day 28): 98.8%
- Percent Purity of [Glu^22,25, Leu^23,28,31, Aib^29, Lys^26,30]hPTHrP(1-34)NH2 (Histidine-HCl 1 mg/mL, Storage Condition B (25° C./60% RH), Initial): 99.0%
- Percent Purity of [Glu^22,25, Leu^23,28,31, Aib^29, Lys^26,30]hPTHrP(1-34)NH2 (Histidine-HCl 2 mg/mL, Storage Condition A (40° C./96% RH), Day 1): 98.4%
- Percent Purity of [Glu^22,25, Leu^23,28,31, Aib^29, Lys^26,30]hPTHrP(1-34)NH2 (Histidine-HCl 2 mg/mL, Storage Condition A (40° C./96% RH), Day 3): 97.5%
- Percent Purity of [Glu^22,25, Leu^23,28,31, Aib^29, Lys^26,30]hPTHrP(1-34)NH2 (Histidine-HCl 2 mg/mL, Storage Condition A (40° C./96% RH), Day 7): 83.2%
- Percent Purity of [Glu^22,25, Leu^23,28,31, Aib^29, Lys^26,30]hPTHrP(1-34)NH2 (Histidine-HCl 2 mg/mL, Storage Condition A (40° C./96% RH), Day 14): 50.0%
- Percent Purity of [Glu^22,25, Leu^23,28,31, Aib^29, Lys^26,30]hPTHrP(1-34)NH2 (Histidine-HCl 2 mg/mL, Storage Condition A (40° C./96% RH), Day 21, the sample for analysis contained insoluble impurities): 36.8^(a) percent
- Percent Purity of [Glu^22,25, Leu^23,28,31, Aib^29, Lys^26,30]hPTHrP(1-34)NH2 (Histidine-HCl 2 mg/mL, Storage Condition A (40° C./96% RH), Initial): 99.0%
- Percent Purity of [Glu^22,25, Leu^23,28,31, Aib^29, Lys^26,30]hPTHrP(1-34)NH2 (Histidine-HCl 2 mg/mL, Storage Condition B (25° C./60% RH), 2 months): 98.1%
- Percent Purity of [Glu^22,25, Leu^23,28,31, Aib^29, Lys^26,30]hPTHrP(1-34)NH2 (Histidine-HCl 2 mg/mL, Storage Condition B (25° C./60% RH), Day 3): 98.8%
- Percent Purity of [Glu^22,25, Leu^23,28,31, Aib^29, Lys^26,30]hPTHrP(1-34)NH2 (Histidine-HCl 2 mg/mL, Storage Condition B (25° C./60% RH), Day 7): 98.8%
- Percent Purity of [Glu^22,25, Leu^23,28,31, Aib^29, Lys^26,30]hPTHrP(1-34)NH2 (Histidine-HCl 2 mg/mL, Storage Condition B (25° C./60% RH), Day 14): 98.8%
- Percent Purity of [Glu^22,25, Leu^23,28,31, Aib^29, Lys^26,30]hPTHrP(1-34)NH2 (Histidine-HCl 2 mg/mL, Storage Condition B (25° C./60% RH), Day 28): 98.9%
- Percent Purity of [Glu^22,25, Leu^23,28,31, Aib^29, Lys^26,30]hPTHrP(1-34)NH2 (Histidine-HCl 2 mg/mL, Storage Condition B (25° C./60% RH), Initial): 99.0%
- Percent Purity of [Glu^22,25, Leu^23,28,31, Aib^29, Lys^26,30]hPTHrP(1-34)NH2 (Histidine-HCl 3.3 mg/mL, Storage Condition A (40° C./96% RH), Day 1): 98.6%
- Percent Purity of [Glu^22,25, Leu^23,28,31, Aib^29, Lys^26,30]hPTHrP(1-34)NH2 (Histidine-HCl 3.3 mg/mL, Storage Condition A (40° C./96% RH), Day 3): 97.8%
- Percent Purity of [Glu^22,25, Leu^23,28,31, Aib^29, Lys^26,30]hPTHrP(1-34)NH2 (Histidine-HCl 3.3 mg/mL, Storage Condition A (40° C./96% RH), Day 7): 93.5%
- Percent Purity of [Glu^22,25, Leu^23,28,31, Aib^29, Lys^26,30]hPTHrP(1-34)NH2 (Histidine-HCl 3.3 mg/mL, Storage Condition A (40° C./96% RH), Day 14): 58.3%
- Percent Purity of [Glu^22,25, Leu^23,28,31, Aib^29, Lys^26,30]hPTHrP(1-34)NH2 (Histidine-HCl 3.3 mg/mL, Storage Condition A (40° C./96% RH), Day 21, the sample for analysis contained insoluble impurities): 78.2^(a) percent
- Percent Purity of [Glu^22,25, Leu^23,28,31, Aib^29, Lys^26,30]hPTHrP(1-34)NH2 (Histidine-HCl 3.3 mg/mL, Storage Condition A (40° C./96% RH), Initial): 99.3%
- Percent Purity of [Glu^22,25, Leu^23,28,31, Aib^29, Lys^26,30]hPTHrP(1-34)NH2 (Histidine-HCl 3.3 mg/mL, Storage Condition B (25° C./60% RH), 2 months): 98.5%
- Percent Purity of [Glu^22,25, Leu^23,28,31, Aib^29, Lys^26,30]hPTHrP(1-34)NH2 (Histidine-HCl 3.3 mg/mL, Storage Condition B (25° C./60% RH), Day 3): 98.9%
- Percent Purity of [Glu^22,25, Leu^23,28,31, Aib^29, Lys^26,30]hPTHrP(1-34)NH2 (Histidine-HCl 3.3 mg/mL, Storage Condition B (25° C./60% RH), Day 7): 98.8%
- Percent Purity of [Glu^22,25, Leu^23,28,31, Aib^29, Lys^26,30]hPTHrP(1-34)NH2 (Histidine-HCl 3.3 mg/mL, Storage Condition B (25° C./60% RH), Day 14): 98.9%
- Percent Purity of [Glu^22,25, Leu^23,28,31, Aib^29, Lys^26,30]hPTHrP(1-34)NH2 (Histidine-HCl 3.3 mg/mL, Storage Condition B (25° C./60% RH), Day 28): 98.8%
Substance: [Glu^22,25,Leu^23,28,31,Aib^29,Lys^26,30]hPTHrP(1-34)NH2
